Laboratory results from PubChem BioAssay (NCI).
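In this assay, cells in 96-well plates receive the compound at five concentrations for 48 hours. Endpoints are linearly interpolated between the surrounding concentrations. Here, GI50 denotes the concentration required for 50% inhibition of growth. The concentration for full growth arrest is given as TGI.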

Experiments:
Assay in all cases: inhibition of tumour cell growth, NCI panel, 48 h
[1] = system: OVCAR-5 ovarian
[2] = system: U251 CNS
[3] = system: RPMI-8226 leukemia
[4] = system: K-562 leukemia
[5] = system: M14 melanoma
[6] = system: UO-31 renal
[7] = system: NCI-H522 lung
[8] = system: A498 renal
[9] = system: LOX IMVI melanoma
[10] = system: MALME-3M melanoma
[11] = system: HOP-92 NSCLC
[12] = system: SF-268 CNS
[13] = system: MOLT-4 leukemia
[14] = system: MCF7 breast
[15] = system: NCI-H226 lung
[16] = system: 786-0 renal
[17] = system: SNB-19 CNS
[18] = system: HT29 colon
[19] = system: HCT-15 colon
[20] = system: SF-539 CNS
[21] = system: HCT-116 colon
[22] = system: SNB-75 CNS
[23] = system: HL-60(TB) leukemia
[24] = system: MDA-MB-435
[25] = system: SF-295 CNS
[26] = system: CAKI-1 renal
[27] = system: UACC-257 melanoma
[28] = system: T-47D breast
[29] = system: IGROV1 ovarian
[30] = system: NCI/ADR-RES ovarian
[31] = system: HCC-2998 colon
[32] = system: COLO 205 colon
[33] = system: MDA-MB-231 breast
[34] = system: DU-145 prostate
[35] = system: SK-MEL-2 melanoma
[36] = system: CCRF-CEM leukemia
[37] = system: HOP-62 NSCLC
[38] = system: OVCAR-4 ovarian
[39] = system: OVCAR-3 ovarian
[40] = system: PC-3 prostate
[41] = system: EKVX NSCLC
[42] = system: NCI-H460 lung
[43] = system: UACC-62 melanoma
[44] = system: SK-MEL-28 melanoma
[45] = system: SW-620 colon
[46] = system: BT-549 breast
[47] = system: OVCAR-8 ovarian
[48] = system: SK-OV-3 ovarian
[49] = system: SR leukemia
[50] = system: KM12 colon
[51] = system: HS 578T breast
[52] = system: SN12C renal
[53] = system: TK-10 renal
[54] = system: A549 NSCLC
[55] = system: ACHN renal
[56] = system: SK-MEL-5 melanoma
[57] = system: RXF 393 renal

Compound: O=C(Nc1cc(Cl)cc(Cl)c1)Nc1ccc2oc(=O)ccc2c1
- GI50 [1]: 3.19 µM
- TGI [1]: 12.1 µM
- GI50 [2]: 2.43 µM
- TGI [2]: 7.51 µM
- GI50 [3]: 1.53 µM
- TGI [3]: 4.89 µM
- GI50 [4]: 2.34 µM
- TGI [4]: 18 µM
- GI50 [5]: 3.39 µM
- TGI [5]: 11.9 µM
- GI50 [6]: 1.94 µM
- TGI [6]: 7.48 µM
- GI50 [7]: 1.39 µM
- TGI [7]: 4.01 µM
- GI50 [8]: 2.59 µM
- TGI [8]: 7.07 µM
- GI50 [9]: 2.04 µM
- TGI [9]: 4.66 µM
- GI50 [10]: 2.64 µM
- TGI [10]: 7.42 µM
- GI50 [11]: 1.86 µM
- TGI [11]: 5.52 µM
- GI50 [12]: 3.91 µM
- TGI [12]: 17.2 µM
- GI50 [13]: 2.32 µM
- TGI [13]: 7.31 µM
- GI50 [14]: 2.28 µM
- TGI [14]: 8.09 µM
- GI50 [15]: 2.67 µM
- TGI [15]: 8.81 µM
- GI50 [16]: 3.08 µM
- TGI [16]: 11.7 µM
- GI50 [17]: 3.73 µM
- TGI [17]: 15.2 µM
- GI50 [18]: 2.59 µM
- TGI [18]: 9.86 µM
- GI50 [19]: 2.69 µM
- TGI [19]: 10.9 µM
- GI50 [20]: 2.9 µM
- TGI [20]: 8.98 µM
- GI50 [21]: 2.31 µM
- TGI [21]: 8.7 µM
- GI50 [22]: 2.24 µM
- TGI [22]: 14 µM
- GI50 [23]: 1.27 µM
- TGI [23]: 4.43 µM
- GI50 [24]: 2.77 µM
- TGI [24]: 10.2 µM
- GI50 [25]: 2.34 µM
- TGI [25]: 6.05 µM
- GI50 [26]: 2.28 µM
- TGI [26]: 7.49 µM
- GI50 [27]: 2.23 µM
- TGI [27]: 6.78 µM
- GI50 [28]: 1.93 µM
- TGI [28]: 7.5 µM
- GI50 [29]: 3.28 µM
- TGI [29]: 15.1 µM
- GI50 [30]: 2.47 µM
- TGI [30]: 8.91 µM
- GI50 [31]: 3.24 µM
- TGI [31]: 11.4 µM
- GI50 [32]: 2.19 µM
- TGI [32]: 4.63 µM
- GI50 [33]: 2.75 µM
- TGI [33]: 7.87 µM
- GI50 [34]: 3.87 µM
- TGI [34]: 13.8 µM
- GI50 [35]: 2.03 µM
- TGI [35]: 4.84 µM
- GI50 [36]: 2.3 µM
- TGI [36]: 7.62 µM
- GI50 [37]: 2.98 µM
- TGI [37]: 9.87 µM
- GI50 [38]: 3.23 µM
- TGI [38]: 14.1 µM
- GI50 [39]: 3.24 µM
- TGI [39]: 13.1 µM
- GI50 [40]: 1.9 µM
- TGI [40]: 11 µM
- GI50 [41]: 2.87 µM
- TGI [41]: 12.4 µM
- GI50 [42]: 2.27 µM
- TGI [42]: 7.39 µM
- GI50 [43]: 2.92 µM
- TGI [43]: 12.3 µM
- GI50 [44]: 3.71 µM
- TGI [44]: 13.7 µM
- GI50 [45]: 3.5 µM
- TGI [45]: 13.5 µM
- GI50 [46]: 2.86 µM
- TGI [46]: 9.06 µM
- GI50 [47]: 2.73 µM
- TGI [47]: 11 µM
- GI50 [48]: 2.24 µM
- TGI [48]: 5.7 µM
- GI50 [49]: 1.98 µM
- TGI [49]: 5.82 µM
- GI50 [50]: 3.05 µM
- TGI [50]: 10.8 µM
- GI50 [51]: 3.14 µM
- TGI [51]: 14.5 µM
- GI50 [52]: 2.92 µM
- TGI [52]: 10.6 µM
- GI50 [53]: 3.12 µM
- TGI [53]: 9.51 µM
- GI50 [54]: 2.9 µM
- TGI [54]: 12.2 µM
- GI50 [55]: 3.3 µM
- TGI [55]: 11.2 µM
- GI50 [56]: 1.66 µM
- TGI [56]: 3.11 µM
- GI50 [57]: 2.57 µM
- TGI [57]: 6.72 µM
